Results published in ChEMBL document CHEMBL4823314, “Design, synthesis and biological evaluation of novel acridine and quinoline derivatives as tubulin polymerization inhibitors with anticancer activities” (Bioorg Med Chem, 2021).
Calls of active or inactive are those of the source. The rule behind the calls is not given here.

Experiments:
MCF7 [1] = assay: Antiproliferative activity against human MCF7 cells assessed as reduction in cell viability at 0.5 uM by MTT assay; format: functional, cell-based; details: time 12-72 hrs, TDE = time-dependent effect
HepG2 [2] = assay: Cell cycle arrest in human HepG2 cells assessed as accumulation at G1 phase at 0.5 uM measured after 48 hrs by propidium iodide staining based flow cytometry analysis (reference value: 56.11%); format: functional
B16-F10 [3] = assay: Antiproliferative activity against mouse B16-F10 cells assessed as reduction in cell viability measured after 48 hrs by MTT assay; format: functional, cell-based; details: B16-F10, 48 h
HepG2 [4] = assay: Induction of apoptosis in human HepG2 cells assessed as necrotic cells at 1 uM measured after 48 hrs by AnnexinV-FITC/propidium iodide staining based flow cytometry (reference value: 1.05%); format: functional
HepG2 [5] = assay: Cell cycle arrest in human HepG2 cells assessed as accumulation at S phase at 0.5 uM measured after 48 hrs by propidium iodide staining based flow cytometry analysis (reference value: 34.13%); format: functional
MCF7 [6] = assay: cells; details: Homo sapiens, MCF7, 48 h
Description: Antiproliferative activity against human MCF7 cells assessed as reduction in cell viability measured after 48 hrs by MTT assay

HepG2 [7] = assay: Induction of apoptosis in human HepG2 cells assessed as late apoptotic cells at 0.5 uM measured after 48 hrs by AnnexinV-FITC/propidium iodide staining based flow cytometry (reference value: 5.93%); format: functional
HepG2 [8] = assay: Antiproliferative activity against human HepG2 cells assessed as reduction in cell viability measured after 48 hrs by MTT assay; format: functional, cell-based; details: HepG2, 48 h
HepG2 [9] = assay: Antiproliferative activity against human HepG2 cells assessed as reduction in cell viability at 0.5 uM by MTT assay; format: functional, cell-based; details: time 12-72 hrs, TDE = time-dependent effect
HepG2 [10] = assay: Cell cycle arrest in human HepG2 cells assessed as accumulation at G2/M phase at 0.5 uM measured after 48 hrs by propidium iodide staining based flow cytometry analysis (reference value: 9.27%); format: functional
HepG2 [11] = assay: Induction of apoptosis in human HepG2 cells assessed as early apoptotic cells at 5 uM measured after 48 hrs by AnnexinV-FITC/propidium iodide staining based flow cytometry (reference value: 10.8%); format: functional
[12] = Inhibition of pig brain tubulin polymerization by spectrophotometric method; format: tissue-based, Sus scrofa
HepG2 [13] = assay: Disruption of microtubule network in human HepG2 cells incubated for 12 hrs by DAPI staining based immunofluorescence analysis; format: functional, cell-based; details: dose 0.1-1 µM
HepG2 [14] = assay: Induction of apoptosis in human HepG2 cells assessed as necrotic cells at 0.5 uM measured after 48 hrs by AnnexinV-FITC/propidium iodide staining based flow cytometry (reference value: 1.05%); format: functional
HepG2 [15] = assay: Induction of apoptosis in human HepG2 cells assessed as late apoptotic cells at 5 uM measured after 48 hrs by AnnexinV-FITC/propidium iodide staining based flow cytometry (reference value: 5.93%); format: functional
HepG2 [16] = assay: Cell cycle arrest in human HepG2 cells assessed as accumulation at S phase at 1 uM measured after 48 hrs by propidium iodide staining based flow cytometry analysis (reference value: 34.13%); format: functional
HepG2 [17] = assay: Cell cycle arrest in human HepG2 cells assessed as accumulation at G2/M phase at 5 uM measured after 48 hrs by propidium iodide staining based flow cytometry analysis (reference value: 9.27%); format: functional
HepG2 [18] = assay: Induction of apoptosis in human HepG2 cells assessed as viable cells at 0.5 uM measured after 48 hrs by AnnexinV-FITC/propidium iodide staining based flow cytometry (reference value: 82.2%); format: functional; details: read-out: Activity
HepG2 [19] = assay: Cell cycle arrest in human HepG2 cells assessed as accumulation at G2/M phase at 1 uM measured after 48 hrs by propidium iodide staining based flow cytometry analysis (reference value: 9.27%); format: functional
HepG2 [20] = assay: Induction of apoptosis in human HepG2 cells assessed as necrotic cells at 5 uM measured after 48 hrs by AnnexinV-FITC/propidium iodide staining based flow cytometry (reference value: 1.05%); format: functional
Sus scrofa = organism: Sus scrofa; assay: Inhibition of pig brain tubulin polymerization measured upto 20 mins by spectrophotometric method; details: dose 3-100 µM, time min <=20
HeLa [21] = assay: cells; details: Homo sapiens, 48 h
Description: Antiproliferative activity against human HeLa cells assessed as reduction in cell viability measured after 48 hrs by MTT assay

B16-F10 [22] = assay: Antiproliferative activity against mouse B16-F10 cells assessed as reduction in cell viability incubated for 48 hrs by MTT assay; format: functional, cell-based; details: dose 2.5-10 µM
HepG2 [23] = assay: Induction of apoptosis in human HepG2 cells assessed as viable cells at 1 uM measured after 48 hrs by AnnexinV-FITC/propidium iodide staining based flow cytometry (reference value: 82.2%); format: functional; details: read-out: Activity
HepG2 [24] = assay: Induction of apoptosis in human HepG2 cells assessed as early apoptotic cells at 0.5 uM measured after 48 hrs by AnnexinV-FITC/propidium iodide staining based flow cytometry (reference value: 10.8%); format: functional
MCF7 [25] = assay: Antiproliferative activity against human MCF7 cells assessed as reduction in cell viability incubated for 48 hrs by MTT assay; format: functional, cell-based; details: dose 2.5-10 µM
HepG2 [26] = assay: Inhibition of colony formation in human HepG2 cells at 1 uM incubated for 24 hrs by crystal violet staining based analysis; format: functional, cell-based
HepG2 [27] = assay: Induction of apoptosis in human HepG2 cells assessed as early apoptotic cells at 1 uM measured after 48 hrs by AnnexinV-FITC/propidium iodide staining based flow cytometry (reference value: 10.8%); format: functional
HepG2 [28] = assay: Inhibition of colony formation in human HepG2 cells incubated for 24 hrs by crystal violet staining based analysis; format: functional, cell-based; details: dose 0.1-1 µM
HepG2 [29] = assay: Cell cycle arrest in human HepG2 cells assessed as accumulation at S phase at 5 uM measured after 48 hrs by propidium iodide staining based flow cytometry analysis (reference value: 34.13%); format: functional
HeLa [30] = assay: Antiproliferative activity against human HeLa cells assessed as reduction in cell viability incubated for 48 hrs by MTT assay; format: functional, cell-based; details: dose 2.5-10 µM
HepG2 [31] = assay: Cell cycle arrest in human HepG2 cells assessed as accumulation at G1 phase at 1 uM measured after 48 hrs by propidium iodide staining based flow cytometry analysis (reference value: 56.11%); format: functional
HepG2 [32] = assay: Induction of apoptosis in human HepG2 cells assessed as viable cells at 5 uM measured after 48 hrs by AnnexinV-FITC/propidium iodide staining based flow cytometry (reference value: 82.2%); format: functional; details: read-out: Activity
B16-F10 [33] = assay: Antiproliferative activity against mouse B16-F10 cells assessed as reduction in cell viability at 0.5 uM by MTT assay; format: functional, cell-based; details: time 12-72 hrs, TDE = time-dependent effect
HepG2 [34] = assay: Antiproliferative activity against human HepG2 cells assessed as reduction in cell viability incubated for 48 hrs by MTT assay; format: functional, cell-based; details: dose 2.5-10 µM
HepG2 [35] = assay: Cell cycle arrest in human HepG2 cells assessed as accumulation at G1 phase at 5 uM measured after 48 hrs by propidium iodide staining based flow cytometry analysis (reference value: 56.11%); format: functional
HepG2 [36] = assay: Antimigratory activity in human HepG2 cells assessed as inhibition of cell migration incubated for 24 hrs by scratch wound healing assay; format: functional, cell-based; details: dose 0.1-1 µM
HepG2 [37] = assay: Induction of apoptosis in human HepG2 cells assessed as late apoptotic cells at 1 uM measured after 48 hrs by AnnexinV-FITC/propidium iodide staining based flow cytometry (reference value: 5.93%); format: functional
HeLa [38] = assay: Antiproliferative activity against human HeLa cells assessed as reduction in cell viability at 0.5 uM by MTT assay; format: functional, cell-based; details: time 12-72 hrs, TDE = time-dependent effect

SMILES: COc1ccc(N(C)c2cccc3ncccc23)cc1
- Activity (MCF7 [1]): Tde
- Activity (HepG2 [2]): 42.3%
- IC50 (B16-F10 [3]): 563 nM
- Activity (HepG2 [4]): 1.38%
- Activity (HepG2 [5]): 38.55%
- IC50 (MCF7 [6]): 609 nM
- Activity (HepG2 [7]): 23.3%
- IC50 (HepG2 [8]): 261 nM
- Activity (HepG2 [9]): Tde
- Activity (HepG2 [10]): 17.46%
- Activity (HepG2 [11]): 38.8%
- IC50 [12]: 12400 nM
- Activity (HepG2 [13]): Active
- Activity (HepG2 [14]): 2.58%
- Activity (HepG2 [15]): 39.4%
- Activity (HepG2 [16]): 38.01%
- Activity (HepG2 [17]): 32.13%
- viability at 0.5 µM (HepG2 [18]): 25.2%
- Activity (HepG2 [19]): 27.32%
- Activity (HepG2 [20]): 2.5%
- inhibition (Sus scrofa): Dose-Dependent Effect
- IC50 (HeLa [21]): 2050 nM
- Activity (B16-F10 [22]): Dose-Dependent Effect
- viability at 1 µM (HepG2 [23]): 10.6%
- Activity (HepG2 [24]): 48.9%
- Activity (MCF7 [25]): Dose-Dependent Effect
- inhibition (HepG2 [26]): Active
- Activity (HepG2 [27]): 59.6%
- inhibition (HepG2 [28]): Dose-Dependent Effect
- Activity (HepG2 [29]): 30.88%
- Activity (HeLa [30]): Dose-Dependent Effect
- Activity (HepG2 [31]): 32.66%
- viability at 5 µM (HepG2 [32]): 19.3%
- Activity (B16-F10 [33]): Tde
- Activity (HepG2 [34]): Dose-Dependent Effect
- Activity (HepG2 [35]): 38%
- Activity (HepG2 [36]): Dose-Dependent Effect
- Activity (HepG2 [37]): 28.5%
- Activity (HeLa [38]): Tde
